From US20060241027A1, “Hiv inhibiting proteins” (priority 2002, published 2006)
Where two headings read alike, the source gives them in different places.

How the values were obtained:
[1] = molecular target: HIV-1 gp41 (transmembrane subunit of the HIV-1 envelope glycoprotein) (HIV-1) (UniProt P03377); test: cell-based or functional assay
[2] = cited from earlier work; for terminal half-life: humans
SIV = conditions: cited from earlier work
HIV-1 [3] = conditions: cited from earlier work
HIV-1 [4] = conditions: low nanomolar range; cited from earlier work
HIV-2 = conditions: cited from earlier work
[5] = primates; cited from earlier work
HIV = conditions: 12.5 mg/day to 200 mg/day (Gulick, 2002); cited from earlier work

C-terminal albumin-(GGS)4GG-T-1249 fusion protein, produced in the standard (PMT1) yeast strain (from UniProt P02768 25-609)
50% inhibitory concentration (IC50), HIV-1 cell-cell fusion assay on Jurkat cells [1]: 10 to 100 nM

enfuvirtide
plasma half-life ([2]; clinical trials, typical dose 50 mg twice daily): about 1.8 hours
terminal half-life ([2]; 45 mg subcutaneous dose (Zhang X et al., 2002)): 3.46 h
terminal half-life ([2]; 180 mg subcutaneous dose (Zhang X et al., 2002)): 4.35 h
activity against SIV (SIV): does not inhibit
activity against HIV-1 (HIV-1 [3]): active against several clades of HIV-1
antiviral activity in cell-cell fusion assays (HIV-1 [4]): 0.2 to 2 nM
activity against HIV-2 (HIV-2): does not inhibit

WQEWEQKITALLEQAQIQQEKNEYELQKLDKWASLWEWF [T-1249]
activity against SIV (SIV): active
half-life / AUC compared with T-20 [5]: twofold increased AUC
suppression of HIV (HIV): dose-related suppression of HIV
activity against HIV-1 (HIV-1 [3]): active
activity against HIV-2 (HIV-2): active

C-terminal albumin-(GGS)4GG-T-20 fusion protein, expressed in the pmt1 gene deficient yeast strain (from UniProt P02768 25-609)
50% inhibitory concentration, HIV-1 cell-cell fusion assay on Jurkat cells [1]: 4 to 13 nM
